We go through 11 compounds from ChEMBL document CHEMBL1201862, “PubChem BioAssay data set” (2004).

Some test systems named below: IGROV-1; OVCAR-3; EKVX; SF-268; SK-MEL-5; ACHN; U-251; HCC 2998; UO-31; RPMI-8226; A549; OVCAR-8; OVCAR-5; SK-MEL-28; NCI-H522; MCF7; HCT-15; SW-620; MDA-MB-435; RXF 393.
Holding throughout (assay): inhibition of tumour cell growth, NCI panel, 48 h

SMILES strings stand for the structures.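 Step 1: Grow cells in 96-well plates. Step 2: Expose to compound for 48 hours at 5 concentrations. Step 3: Interpolate endpoints linearly; if unreached, use highest concentration. GI50 marks 50% less growth.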 The source made the active and inactive calls. No stated cut-off is given here; in the data, active = GI50 up to about 1.1 µM and inactive = higher. Some results are limits rather than exact numbers.

`CSc1nc(SC)c2c(CN=[N+]=[N-])c(Br)n(Cc3ccccc3)c2n1`: the GI50 with IGROV-1, in the test on OVCAR-3, with EKVX, in the test with SF-268, with SK-MEL-5 and with ACHN was > 100 µM (inactive) in each case. Moreover, the GI50 in the test with U-251 is 71.9 µM (inactive); with HCC 2998 it was > 100 µM (inactive); in the test on UO-31, > 100 µM (inactive); in the test with RPMI-8226 it was > 100 µM (inactive); with A549 it was > 100 µM (inactive); with OVCAR-8, > 100 µM (inactive). The GI50 with OVCAR-5 was > 100 µM (inactive); in the test on SK-MEL-28, > 100 µM (inactive); in the test with NCI-H522 it was > 100 µM (inactive); in the test with MCF7, > 100 µM (inactive); in the test on HCT-15, more than 100 µM; with SW-620, > 100 µM (inactive). The GI50 with MDA-MB-435 is 55.7 µM (inactive).
With `[O-][S+](Cc1ccccc1)c1ccccc1Cn1cccc1` (configuration not stated), the GI50 in the test on IGROV-1, in the test with OVCAR-3, with EKVX, with SF-268, with SK-MEL-5 and with ACHN was > 100 µM (inactive) throughout. The GI50 in the test on U-251 was > 100 µM (inactive); with HCC 2998, > 100 µM (inactive); with RXF 393, 42.8 µM (inactive); in the test on UO-31, > 100 µM (inactive); with RPMI-8226, > 100 µM (inactive); with A549 it was > 100 µM (inactive). Besides, the GI50 in the test with OVCAR-5 is > 100 µM (inactive); with SK-MEL-28, > 100 µM (inactive); with MCF7 it was > 100 µM (inactive); with HCT-15, more than 100 µM; in the test with SW-620, > 100 µM (inactive); in the test on MDA-MB-435, 42.6 µM (inactive).
Take `Cc1ccc(NC(=O)c2cc(S(=O)(=O)Nc3n[nH]c(=O)[nH]3)c(SSc3cc(Cl)c(C(=O)Nc4ccc(C)cc4)cc3S(=O)(=O)Nc3n[nH]c(=O)[nH]3)cc2Cl)cc1`: the GI50 in the test with IGROV-1, with OVCAR-3, with EKVX, in the test on SF-268, with SK-MEL-5 and in the test on ACHN was > 100 µM (inactive) in each case. Moreover, the GI50 with U-251, in the test with HCC 2998, in the test with UO-31, in the test with RPMI-8226, with A549 and in the test with OVCAR-8 was > 100 µM (inactive) throughout. The GI50 with OVCAR-5 was > 100 µM (inactive); in the test with SK-MEL-28, > 100 µM (inactive); in the test with NCI-H522, > 100 µM (inactive); in the test with MCF7, > 100 µM (inactive); in the test on HCT-15, more than 100 µM; in the test with SW-620 it was > 100 µM (inactive). For the same compound, the GI50 in the test on MDA-MB-435 was > 100 µM (inactive).
As for `N/N=C(\N)SCCCCCCCCCCS/C(N)=N/N`, the GI50 with IGROV-1 was 18.7 µM (inactive); in the test with OVCAR-3, 19.7 µM (inactive); in the test on EKVX it was 31.1 µM (inactive); with SF-268, 30.3 µM (inactive); in the test with SK-MEL-5 it was 21 µM (inactive); in the test on ACHN, 20.7 µM (inactive). The GI50 was 17.6 µM (inactive) in the test on U-251; 22.4 µM (inactive) in the test on HCC 2998; 15.1 µM (inactive) with UO-31; 23.3 µM (inactive) in the test on RPMI-8226; 18 µM (inactive) in the test on A549; 16.8 µM (inactive) with OVCAR-8. Further, the GI50 with OVCAR-5 is 45.4 µM (inactive); in the test with SK-MEL-28 it was 37.8 µM (inactive); in the test on NCI-H522, 17.1 µM (inactive); in the test on MCF7, 23.6 µM (inactive); in the test on HCT-15, 14.3 µM; with SW-620 it was 17.7 µM (inactive). The GI50 with MDA-MB-435 was 32.7 µM (inactive).
Consider `CSCCC(NC(c1ccccc1)c1ccccc1)[PH](=O)O` (configuration not stated), for which the GI50 with IGROV-1, in the test with OVCAR-3, in the test with EKVX, in the test with SF-268, in the test on SK-MEL-5 and in the test on ACHN was > 100 µM (inactive) in each case. In addition, the GI50 in the test with U-251, with UO-31, with RPMI-8226, in the test on A549, with OVCAR-8 and in the test on OVCAR-5 was > 100 µM (inactive) throughout. Further, the GI50 in the test on SK-MEL-28 is > 100 µM (inactive); in the test with NCI-H522, > 100 µM (inactive); in the test with MCF7 it was > 100 µM (inactive); in the test on HCT-15, more than 100 µM; with SW-620, > 100 µM (inactive); with MDA-MB-435, > 100 µM (inactive).
With `O=[N+]([O-])c1ccc(Cl)cc1-n1nc(-c2ccccc2)cc1-c1ccccc1`, the GI50 with IGROV-1, in the test on OVCAR-3, in the test on EKVX, in the test on SF-268, in the test with SK-MEL-5 and with ACHN was > 100 µM (inactive) throughout. Also, the GI50 in the test with U-251, in the test with HCC 2998, in the test with UO-31, in the test with RPMI-8226, with A549 and with OVCAR-8 was > 100 µM (inactive) each time. Moreover, the GI50 in the test with OVCAR-5 was > 100 µM (inactive); in the test on SK-MEL-28, > 100 µM (inactive); in the test with NCI-H522, > 100 µM (inactive); with MCF7, 95.1 µM (inactive); in the test with HCT-15, more than 100 µM; in the test on SW-620 it was > 100 µM (inactive). Moreover, the GI50 in the test with MDA-MB-435 is > 100 µM (inactive).
Take `Cc1ccc(S(=O)(=O)NC2C(=O)c3ccccc3C(=O)C2n2cnc3ccccc32)cc1` (configuration not stated): the GI50 in the test on IGROV-1 is 16.8 µM (inactive); in the test on OVCAR-3, 4.3 µM (inactive); with EKVX, 34.3 µM (inactive); in the test on SF-268 it was 40 µM (inactive); in the test on SK-MEL-5, 13.1 µM (inactive); with ACHN, 24.3 µM (inactive). Besides, the GI50 is 26.1 µM (inactive) with U-251; 0.906 µM (active) in the test with HCC 2998; 24.9 µM (inactive) with RXF 393; 32.5 µM (inactive) in the test with RPMI-8226; 33.5 µM (inactive) in the test with A549; 29.4 µM (inactive) in the test with OVCAR-8. Besides, the GI50 with OVCAR-5 was > 100 µM (inactive); in the test on SK-MEL-28, 29.3 µM (inactive); in the test with MCF7, 31.6 µM (inactive); with HCT-15 it was 25.6 µM; in the test with SW-620, 25.3 µM (inactive); in the test on MDA-MB-435, 18.6 µM (inactive).
Regarding `CSC1=C(C#N)C(=O)N(c2ccc(C)cc2)C(=S)C1C#N` (configuration not stated), the GI50 with IGROV-1, in the test with EKVX, in the test on SF-268, with SK-MEL-5, with ACHN and in the test on U-251 was > 100 µM (inactive) each time. The GI50 in the test on HCC 2998, with RXF 393, in the test with A549, in the test with OVCAR-8, in the test on OVCAR-5 and in the test with SK-MEL-28 was > 100 µM (inactive) in each case. Further, the GI50 is > 100 µM (inactive) in the test on NCI-H522; > 100 µM (inactive) in the test on MCF7; more than 100 µM in the test with HCT-15; > 100 µM (inactive) in the test with SW-620; > 100 µM (inactive) in the test with MDA-MB-435.
As to `Cc1ccc(C(=O)Oc2ccccc2)cc1/N=N/N(C)C`, the GI50 in the test on IGROV-1 is > 100 µM (inactive); with OVCAR-3, 43.4 µM (inactive); in the test with EKVX, > 100 µM (inactive); in the test on SF-268 it was > 87.7 µM (inactive); in the test with SK-MEL-5 it was > 100 µM (inactive); in the test with ACHN it was > 100 µM (inactive). The GI50 in the test on U-251, in the test with HCC 2998, in the test on UO-31, in the test with RPMI-8226, with A549 and in the test with OVCAR-8 was > 100 µM (inactive) in each case. The GI50 in the test on OVCAR-5 is > 100 µM (inactive); in the test on SK-MEL-28, > 100 µM (inactive); with NCI-H522 it was 42.7 µM (inactive); in the test on MCF7, 36.8 µM (inactive); with HCT-15, more than 70.3 µM; in the test on SW-620, > 100 µM (inactive). Also, the GI50 in the test on MDA-MB-435 is > 100 µM (inactive).
Regarding `Cc1ccc(CC2(OCCN(C)C)CCC(C(C)(C)C)CC2)cc1` (configuration not stated), the GI50 was 8.99 µM (inactive) in the test on IGROV-1; 11.9 µM (inactive) with OVCAR-3; 12.3 µM (inactive) with EKVX; 9.33 µM (inactive) in the test with SF-268; 1.58 µM (inactive) with SK-MEL-5; 8.02 µM (inactive) with ACHN. The GI50 in the test with U-251 is 2.41 µM (inactive); in the test with HCC 2998, 1.9 µM (inactive); in the test with UO-31, 5.33 µM (inactive); in the test on RPMI-8226 it was 2.21 µM (inactive); with A549, 7 µM (inactive); in the test with OVCAR-8, 9.4 µM (inactive). Besides, the GI50 was 3.3 µM (inactive) with OVCAR-5; 1.91 µM (inactive) in the test on SK-MEL-28; 4.88 µM (inactive) with NCI-H522; 3.08 µM (inactive) with MCF7; 4.63 µM with HCT-15; 2.45 µM (inactive) in the test on SW-620. Also, in the test with MDA-MB-435, the GI50 was 2.4 µM (inactive).
As to `CC(C)(C)OC(=O)c1cnc(Cl)cn1`, the GI50 in the test on IGROV-1 was 23.4 µM (inactive); with EKVX it was 24.2 µM (inactive); with SF-268 it was 55.5 µM (inactive); in the test with SK-MEL-5, 47.3 µM (inactive); with ACHN, 35.6 µM (inactive); with U-251 it was 33.8 µM (inactive). The GI50 was 6.19 µM (inactive) with UO-31; 23.7 µM (inactive) with RPMI-8226; 69.7 µM (inactive) in the test on A549; 38.2 µM (inactive) with OVCAR-8; 83.4 µM (inactive) with OVCAR-5; 37.8 µM (inactive) with SK-MEL-28. The GI50 was 1.05 µM (active) in the test with NCI-H522; 23.5 µM (inactive) in the test on MCF7; 11.7 µM with HCT-15; 55.8 µM (inactive) in the test on SW-620; 56.6 µM (inactive) in the test on MDA-MB-435.
